Results reported in ChEMBL document CHEMBL1949518, “Synthesis and biological evaluation of some new 2-pyrazolines bearing benzene sulfonamide moiety as potential anti-inflammatory and anti-cancer agents” (Eur J Med Chem, 2011).

Columns and labels:
Format in all cases: functional
MCF7 = experiment: Anticancer activity against human MCF7 cells after 48 hrs by SRB assay; details: MCF7, 48 h
HOP-62 = experiment: Anticancer activity against human HOP62 cells after 48 hrs by SRB assay; details: HOP-62, 48 h
LOX IMVI = experiment: Anticancer activity against human LOXIMVI cells after 48 hrs by SRB assay
NCI-H522 = experiment: Anticancer activity against human NCI-H522 cells after 48 hrs by SRB assay; details: NCI-H522, 48 h
PC-3 = experiment: Anticancer activity against human PC3 cells after 48 hrs by SRB assay; details: PC-3, 48 h
A498 = experiment: Anticancer activity against human A498 cells after 48 hrs by SRB assay; details: A498, 48 h
EKVX = experiment: Anticancer activity against human EKVX cells after 48 hrs by SRB assay
NCI-H226 = experiment: Anticancer activity against human NCI-H226 cells after 48 hrs by SRB assay; details: NCI-H226, 48 h
786-0 = experiment: Anticancer activity against human 786-0 cells after 48 hrs by SRB assay; details: 786-0, 48 h
OVCAR-4 = experiment: Anticancer activity against human OVCAR4 cells after 48 hrs by SRB assay; details: OVCAR-4, 48 h
HCT-15 = experiment: Anticancer activity against human HCT15 cells after 48 hrs by SRB assay; details: HCT-15, 48 h
[1] = Anticancer activity against human Hs 578T cells after 48 hrs by SRB assay
SNB-75 = experiment: Anticancer activity against human SNB75 cells after 48 hrs by SRB assay; details: SNB-75, 48 h
NCI-H322M = experiment: Anticancer activity against human NCI-H322M cells after 48 hrs by SRB assay
SK-MEL-2 = experiment: Anticancer activity against human SK-MEL-2 cells after 48 hrs by SRB assay; details: SK-MEL-2, 48 h
CAKI-1 = experiment: Anticancer activity against human Caki1 cells after 48 hrs by SRB assay; details: CAKI-1, 48 h
NCI/ADR-RES = experiment: Anticancer activity against human NCI/ADR-RES cells after 48 hrs by SRB assay
DU-145 = experiment: Anticancer activity against human DU145 cells after 48 hrs by SRB assay; details: DU-145, 48 h
HL-60(TB) = experiment: Anticancer activity against human HL-60(TB) cells after 48 hrs by SRB assay; details: HL-60, 48 h
MDA-MB-231 = experiment: Anticancer activity against human MDA-MB-231 cells after 48 hrs by SRB assay; details: MDA-MB-231, 48 h
RXF 393 = experiment: Anticancer activity against human RXF393 cells after 48 hrs by SRB assay; details: RXF 393, 48 h
M14 = experiment: Anticancer activity against human M14 cells after 48 hrs by SRB assay; details: M14, 48 h
K562 = experiment: Anticancer activity against human K562 cells after 48 hrs by SRB assay; details: K562, 48 h
SNB-19 = experiment: Anticancer activity against human SNB19 cells after 48 hrs by SRB assay; details: SNB-19, 48 h
SK-OV-3 = experiment: Anticancer activity against human SKOV3 cells after 48 hrs by SRB assay; details: SK-OV-3, 48 h
U-251 = experiment: Anticancer activity against human U251 cells after 48 hrs by SRB assay; details: U-251, 48 h
MDA-MB-435 = experiment: Anticancer activity against human MDA-MB-435 cells after 48 hrs by SRB assay; details: MDA-MB-435, 48 h
CCRF-CEM = experiment: Anticancer activity against human CCRF-CEM cells after 48 hrs by SRB assay
TK-10 = experiment: Anticancer activity against human TK10 cells after 48 hrs by SRB assay; details: TK-10, 48 h
HCC 2998 = experiment: Anticancer activity against human HCC2998 cells after 48 hrs by SRB assay; details: HCC 2998, 48 h
T47D = experiment: Anticancer activity against human T47D cells after 48 hrs by SRB assay
COLO 205 = experiment: Anticancer activity against human COLO205 cells after 48 hrs by SRB assay; details: COLO 205, 48 h
SK-MEL-28 = experiment: Anticancer activity against human SK-MEL-28 cells after 48 hrs by SRB assay; details: SK-MEL-28, 48 h
OVCAR-3 = experiment: Anticancer activity against human OVCAR3 cells after 48 hrs by SRB assay; details: OVCAR-3, 48 h
[2] = read-out: LC50 (the source's name)

Which GI50 (MCF7) does the source give for `Cc1cc(O)c(C2=NN(c3ccc(S(N)(=O)=O)cc3)C(c3ccc(N(C)C)cc3)C2)c(C)c1Cl` (stereo unspecified) here?
The GI50 was 2010 nM.

What about the TGI (MCF7) of the same compound?
Its TGI is 10.5 µM.

What about the CC50 (MCF7; [2]) of the same compound?
Its CC50 is 37.1 µM.

What about the GI50 (HOP-62) of the same compound?
Its GI50 is 10.4 µM.

What about the LC50 (HOP-62) of the same compound?
Its LC50 is 52.1 µM.

And the TGI (HOP-62)?
Its TGI is 23.3 µM.

What about the GI50 (LOX IMVI) of the same compound?
Its GI50 is 2340 nM.

What about the TGI (LOX IMVI) of the same compound?
Its TGI is 6.98 µM.

And the CC50 (LOX IMVI; [2])?
The CC50 was 32.7 µM.

And the GI50 (NCI-H522)?
The GI50 was 6.24 µM.

What about the LC50 (NCI-H522) of the same compound?
Its LC50 is 58.8 µM.

What about the TGI (NCI-H522) of the same compound?
The TGI was 21.6 µM.

And the GI50 (PC-3)?
Its GI50 is 4.44 µM.

What about the TGI (PC-3) of the same compound?
Its TGI is 16.8 µM.

What about the CC50 (PC-3; [2]) of the same compound?
Its CC50 is 41 µM.

And the GI50 (A498)?
Its GI50 is 6.97 µM.

What about the TGI (A498) of the same compound?
The TGI was 19.3 µM.

What about the CC50 (A498; [2]) of the same compound?
The CC50 was 44.2 µM.

And the GI50 (EKVX)?
The GI50 was 1880 nM.

And the LC50 (concentration killing 50% of cells) (EKVX)?
Its LC50 (concentration killing 50% of cells) is 59.3 µM.

What about the TGI (EKVX) of the same compound?
Its TGI is 13.6 µM.

And the GI50 (NCI-H226)?
Its GI50 is 10.5 µM.

And the LC50 (NCI-H226)?
The LC50 was 55.6 µM.

What about the TGI (NCI-H226) of the same compound?
Its TGI is 24.1 µM.

What about the GI50 (786-0) of the same compound?
The GI50 was 4.97 µM.

What about the TGI (786-0) of the same compound?
The TGI was 17.4 µM.

What about the CC50 (786-0; [2]) of the same compound?
Its CC50 is 43.4 µM.

And the GI50 (OVCAR-4)?
Its GI50 is 7.68 µM.

What about the LC50 (OVCAR-4) of the same compound?
The LC50 was 49.7 µM.

What about the TGI (OVCAR-4) of the same compound?
Its TGI is 21.2 µM.

What about the GI50 (HCT-15) of the same compound?
The GI50 was 5.48 µM.

And the LC50 (concentration killing 50% of cells) (HCT-15)?
Its LC50 (concentration killing 50% of cells) is 57 µM.

What about the TGI (HCT-15) of the same compound?
The TGI was 20.8 µM.

What about the GI50 [1] of the same compound?
Its GI50 is 3.45 µM.

And the TGI [1]?
Its TGI is 20 µM.

What about the CC50 [1, 2] of the same compound?
The CC50 was 91.5 µM.

And the GI50 (SNB-75)?
Its GI50 is 10.9 µM.

And the LC50 (SNB-75)?
Its LC50 is 51.2 µM.

What about the TGI (SNB-75) of the same compound?
Its TGI is 23.7 µM.

What about the GI50 (NCI-H322M) of the same compound?
The GI50 was 5.01 µM.

What about the LC50 (NCI-H322M) of the same compound?
Its LC50 is 52.9 µM.

And the TGI (NCI-H322M)?
The TGI was 20.2 µM.

And the GI50 (SK-MEL-2)?
The GI50 was 11.9 µM.

And the LC50 (SK-MEL-2)?
Its LC50 is 64 µM.

What about the TGI (SK-MEL-2) of the same compound?
Its TGI is 27.6 µM.

What about the GI50 (CAKI-1) of the same compound?
The GI50 was 4.38 µM.

And the TGI (CAKI-1)?
Its TGI is 18.2 µM.

And the CC50 (CAKI-1; [2])?
Its CC50 is 45 µM.

And the GI50 (NCI/ADR-RES)?
The GI50 was 4.63 µM.

And the TGI (NCI/ADR-RES)?
The TGI was 17 µM.

What about the CC50 (NCI/ADR-RES; [2]) of the same compound?
Its CC50 is 4.35 µM.

What about the GI50 (DU-145) of the same compound?
The GI50 was 5.6 µM.

And the TGI (DU-145)?
The TGI was 17.6 µM.

And the CC50 (DU-145; [2])?
Its CC50 is 42.3 µM.

And the GI50 (HL-60(TB))?
The GI50 was 7.84 µM.

What about the TGI (HL-60(TB)) of the same compound?
Its TGI is 20.8 µM.

And the GI50 (MDA-MB-231)?
Its GI50 is 2340 nM.

And the TGI (MDA-MB-231)?
The TGI was 11.8 µM.

And the CC50 (MDA-MB-231; [2])?
The CC50 was 38.7 µM.

What about the GI50 (RXF 393) of the same compound?
Its GI50 is 5.83 µM.

What about the TGI (RXF 393) of the same compound?
Its TGI is 21.2 µM.

And the CC50 (RXF 393; [2])?
Its CC50 is 58.9 µM.

And the GI50 (M14)?
The GI50 was 2620 nM.

What about the TGI (M14) of the same compound?
The TGI was 10.4 µM.

And the CC50 (M14; [2])?
The CC50 was 32.2 µM.

What about the GI50 (K562) of the same compound?
Its GI50 is 2240 nM.

What about the LC50 (K562) of the same compound?
Its LC50 is 33.9 µM.

And the TGI (K562)?
Its TGI is 11.5 µM.

What about the GI50 (SNB-19) of the same compound?
Its GI50 is 12.4 µM.

What about the LC50 (SNB-19) of the same compound?
Its LC50 is 49.9 µM.

What about the TGI (SNB-19) of the same compound?
The TGI was 24.9 µM.

What about the GI50 (SK-OV-3) of the same compound?
Its GI50 is 7.75 µM.

What about the TGI (SK-OV-3) of the same compound?
Its TGI is 20.6 µM.

What about the CC50 (SK-OV-3; [2]) of the same compound?
The CC50 was 4.54 µM.

And the GI50 (U-251)?
Its GI50 is 3.34 µM.

And the LC50 (U-251)?
Its LC50 is 53.7 µM.

And the TGI (U-251)?
Its TGI is 13.5 µM.

What about the GI50 (MDA-MB-435) of the same compound?
The GI50 was 3.57 µM.

What about the LC50 (concentration killing 50% of cells) (MDA-MB-435) of the same compound?
The LC50 (concentration killing 50% of cells) was 41.5 µM.

What about the TGI (MDA-MB-435) of the same compound?
Its TGI is 14.8 µM.

And the GI50 (CCRF-CEM)?
The GI50 was 3.64 µM.

And the TGI (CCRF-CEM)?
The TGI was 13.5 µM.

And the CC50 (CCRF-CEM; [2])?
Its CC50 is 44.4 µM.

What about the GI50 (TK-10) of the same compound?
Its GI50 is 4.48 µM.

What about the TGI (TK-10) of the same compound?
The TGI was 18.8 µM.

And the CC50 (TK-10; [2])?
The CC50 was 69.5 µM.

What about the GI50 (HCC 2998) of the same compound?
Its GI50 is 6.48 µM.

And the LC50 (HCC 2998)?
Its LC50 is 43.8 µM.

And the TGI (HCC 2998)?
Its TGI is 19.1 µM.

And the GI50 (T47D)?
The GI50 was 2930 nM.

What about the TGI (T47D) of the same compound?
Its TGI is 14.9 µM.

And the CC50 (T47D; [2])?
Its CC50 is 49.8 µM.

What about the GI50 (COLO 205) of the same compound?
The GI50 was 1690 nM.

And the LC50 (COLO 205)?
Its LC50 is 6.49 µM.

What about the TGI (COLO 205) of the same compound?
Its TGI is 3.31 µM.

What about the GI50 (SK-MEL-28) of the same compound?
Its GI50 is 11.7 µM.

What about the LC50 (SK-MEL-28) of the same compound?
Its LC50 is 48.9 µM.

What about the TGI (SK-MEL-28) of the same compound?
Its TGI is 23.9 µM.

And the GI50 (OVCAR-3)?
The GI50 was 4.21 µM.

And the LC50 (concentration killing 50% of cells) (OVCAR-3)?
Its LC50 (concentration killing 50% of cells) is 39.6 µM.

What about the TGI (OVCAR-3) of the same compound?
Its TGI is 15.7 µM.
